Experimental data taken from patent US6338962B1, “Use of a non-mammalian DNA virus to express an exogenous gene in a mammalian cell” (priority 1996, dated 2002).

How the values were obtained:
[1] = tested on: HepG2 cells; test: De novo expression test with inhibitors, β-galactosidase in extracts; type: cell-based, human
Protocol: Second, HepG2 cells were infected with the RSV-lacZ virus and then cultured in the presence of the protein synthesis inhibitor cycloheximide.
To determine whether endosome acidification was necessary for baculovirus-mediated gene transfer into mammalian cells, HepG2 cells were infected with RSV-lacZ AcMNPV in the presence of chloroquine, a lysomotropic agent. HepG2 cells were exposed to AcMNPV virus in media containing or lacking inhibitor for 90 minutes, then the virus-containing media were removed and replaced with fresh media containing or lacking inhibitors as listed.
At one day post-infection, the cells were harvested and extracts were assayed for β-galactosidase activity and protein content. Each value in the table represents the average of three independent assays, with the amount of β-galactosidase produced by the RSV-lacZ AcMNPV virus in the absence of inhibitors assigned a value of 100%. β-galactosidase activity was normalized for protein content of each extract.

[2] = tested on: Hep G2; test: Comparison of promoter strengths, β-galactosidase ONPG assay; type: cell-based, human; conditions: for Promoter strength, β-galactosidase: moi 100, 24 hours, mock background subtracted
Text: Baculovirus-mediated Gene Transfer is Enhanced by Butyrate: This example illustrates that butyrate enhances the ability of a baculovirus to express an exogenous gene in a mammalian cell. Five transfer plasmids containing different mammalian promoters were created, as diagrammed in FIG. 18. These vectors were constructed using pSV/BV, a modified version of the baculovirus transfer plasmid pBacPAK9 (Clontech), containing an altered polylinker and SV40 splice and polyadenylation signals. pSV/BV was constructed by restriction of pBacPAK9 with NotI, treatment with T4 DNA polymerase to create blunt ends, and self-ligation to remove the NotI site. A new NotI site was then added by ligation of the linker p[…] into the SmaI site. Finally, SV40 splice and polyadenylation sequences were added by digestion of a variant of pRSVglobin with BglII-BamHI, and insertion of the 850 bp fragment into the BamHI site of the modified BacPAK9, yielding pSV/BV. The human cytomegalovirus immediate early promoter, 758 bp HindIII-XbaI fragment, was excised from PCMV-EBNA (Invitrogen) at HindIII, BamHI and inserted into the HindIII, BamHI sites of pBluescript (SKII^+), yielding plasmid pCMV-SKII^+. The promoter was then excised from CMV-SK II^+ at the XhoI, BamHI sites and inserted into the XhoI, BglII sites of pSV/BV, yielding plasmid pCMV/BV. The 500 bp mouse phosphoglycerate kinase (PGK) promoter was prepared by cutting pKJ1-neo (Tybulewicz et al., 1991, Cell 65: 1153-1163) with EcoRI and made blunt with T4 DNA polymerase to remove the EcoRI site. The resulting pKJ1 plasmid lacking the EcoRI site was amplified by pfu polymerase chain reaction using the primers 5′ […]3′ (SEQ ID NO: 5) and 5′ […]3′ (SEQ ID NO: 6). The amplified PGK promoter was then digested with XhoI and BglII and inserted into the same sites of pSV/BV yielding PKJ1/BV. The 345 bp rat β-actin promoter was excised from pINA (6) at BglII, BamHI and inserted into the BglII site of pSV/BV yielding pβ-actin/BV. The 2.3 kb albumin enhancer and 700 bp albumin promoter were excised from pGEMAlbSVPA (Zaret et al., 1988, Proc. Natl. Acad. Sci. 85:9076-9080) at NaeI, NsiI and inserted into the SmaI, PstI sites of pSV/BV. The RSVlacZ transfer plasmid used (also referred to herein as the Z4 virus) is described above. A 3.0 kb Lac Z cassette was inserted into the NotI site of all of the plasmids constructed (See FIG. 18).
Recombinant viruses were generated by contransfection of the baculovirus transfer vectors with linear BP6 viral DNA (Clontech) into Sf21 cells. The recombinant viruses were purified through three rounds of plaque isolation and amplified on Sf21 cells. The amplified viruses were concentrated by ultracentrifugation as described above and titered by a 96-well method on Sf21 insect cells (O'Reilly et al., 1992, Baculovirus Expression Vectors: A Laboratory Manual, W.H. Freeman, New York, N.Y.).
The human hepatocellular carcinoma cell line HepG2 was infected with each recombinant virus at a multiplicity of infection of 100. Two million cells were infected in a final volume of 1 ml Eagle's Minimum Essential Medium in a 60 mm tissue culture dish. The infection was allowed to proceed for two hours, then 4 ml of complete medium was added to the cells. In a second series of HepG2 infections, the conditions of the first infections were repeated with the exception that after the infection had proceeded for 2 hours 25 μl of sodium butyrate (100 mM) was added to the cells with 1.5 ml complete media. […]

[3] = tested on: HepG2 cells; test: X-gal histochemical staining of infected cells; type: cell-based, human; conditions: moi 100
Protocol: […] Adherent cell lines were seeded one day prior to infection. Cells were exposed to virus in 2 ml of medium for 90 minutes, and then the virus-containing medium was removed and replaced with fresh medium. Mock-infected cells were treated with 2 ml medium lacking the viral inoculum.
For histochemical staining of β-galactosidase activity, cells were fixed in 2% (w/v) formaldehyde-0.2% (v/v) […] in PBS for 5 minutes. After several rinses with PBS, the cells were stained by the addition of 0.5 mg/ml of X-gal (BRL) in PBS for 2-4 hours at 37° C.

[4] = tested on: Rat Hepatocytes; test: Comparison of promoter strengths, β-galactosidase ONPG assay; type: cell-based; conditions: Rat Hepatocytes −butyrate

In the case of `CCN(CC)CCCC(C)Nc1ccnc2cc(Cl)ccc12` (stereo not drawn) [chloroquine], the “effect on de novo expression of β-galactosidase” value ([1]; 25 μM continuously present during and after exposure to virus) is reported as “completely prevented” and the “effect on β-galactosidase expression” value ([1]; added at 90 minutes after exposure to the virus) is reported as “only partial inhibition”.
`CCCC(=O)[O-].[Na+]` [sodium butyrate, reference compound] was tested, and the “effect of addition after infection on β-galactosidase expression” value ([2]; HepG2, added 2 hours after start of infection) was “detectable levels of β-galactosidase expression with all of the promoters tested”.
Albumin was tested, and the “X-gal staining of cells not treated with butyrate” value [3] was “positively stained cells were detected”, the “Promoter strength, β-galactosidase” value ([2]; Hep G2 +butyrate) was 0.08 ± 0.04 Units/mg and the “Promoter strength, β-galactosidase” value ([2]; Hep G2 −butyrate) was 0.0 ± 0.0 Units/mg. The “Promoter strength, β-galactosidase” value ([2]; Hep G2 −butyrate, listed as albumin) was “no activity above background levels”, the “change of gene expression after treatment with butyrate” value ([2]; HepG2) was “increased gene expression” and the “Promoter strength, β-galactosidase” value [4] was 0.15 ± 0.08 Units/mg.
